Key:
[1] = tested on: SKBR3 breast cancer cells; experiment: Immunofluorescent staining of microtubules in cultured cells; type: cell-based, human; conditions: 24 hours, 50 nM
Description: (§1) A549 human non-small cell lung cancer (NSCLC, ATCC reference number CCL-185) cells, HeLa cervical cancer cells (ATCC reference number CCL-2) and SKBR3 breast carcinoma cells (ATCC reference number HTB-30) were seeded at densities of 50% on round microscope coverslips and cultured for 24 hours in RPMI-1640 containing 10% FCS (also referred to as FBS) at 37° C., 5% CO2. Compounds to be tested were dissolved in DMSO. The cell culture medium was replaced with medium containing the diluted compound(s) (paclitaxel, vinblastine, colchicine and nocodazole were purchased from Sigma-Aldrich) or vehicle. After treatment, coverslips were washed and cells were fixed in methanol/acetone (1:1) for 5 minutes at room temperature and subsequently incubated in blocking buffer (0.5% BSA and 0.1% TX-100 in PBS) for 30 minutes at room temperature. Specimens were then incubated with anti-alpha-tubulin antibody (Sigma, 1:2000) for 1 hour at room temperature in blocking buffer. After several washing steps cells were incubated with AlexaFluor-488 goat-anti-mouse IgG (Molecular Probes, 1:3000) for 1 hour at room temperature followed by several washing steps with blocking buffer. Specimens were then mounted with ProLong Gold antifade (Molecular Probes), sealed with nail polish and examined with a Leica immunofluorescence microscope. Images were captured with a cooled CCD-camera and processed by ImageJ software.

A549 NSCLC cells = experiment: as above; type: cell-based, human
Description: as §1

N#CCCNc1nonc1-c1nc2ccccc2n1CC(=O)c1ccc(N)cc1 [BAL27862, 3-(4-{1-[2-(4-Amino-phenyl)-2-oxo-ethyl]-1H-benzoimidazol-2-yl}-furazan-3-ylamino)-propionitrile]
microtubule phenotype of mitotic or G2/M arrested cells [1]: highly reproducible and distinct microtubule phenotype
microtubule phenotype of mitotic or G2/M arrested cells (A549 NSCLC cells; 24 hours treatment, anti-alpha-tubulin staining): highly reproducible and distinct microtubule phenotype
microtubule phenotype, BAL27862 added for the last 4 hours of 24 hours vinblastine, colchicine, paclitaxel or nocodazole treatment (A549 NSCLC cells; combination): disruption of the microtubule structures
